Results as given in US9511072B2, “Methods of modulating cell proliferation and cyst formation in polycystic kidney and liver diseases” (The Medical College of Wisconsin, Inc., priority 2006, dated 2016).

Tests used:
[1] = system: REC11 cells; test: BrdU proliferation of EGF-stimulated REC11 cystic renal epithelial cells; format: cell-based, mouse; conditions: 10 μM, 36 hrs, after EGF 25 ng/ml for 6 hours
Excerpt: REC11 cystic cell line is a conditionally immortalized epithelial collecting tubule (CT) cell line derived from the cystic kidneys of the BPK mouse model of human ARPKD crossed to the ImmortoMouse. The BPK mouse as a human ARPKD model has been described in Nauta J. et al., Pediatr Nephrol 1993, 7:163-172 and Nauta J. et al., Pediatr Res 1995, 37:755-763. The procedures for immortalization, cell isolation, cell culture and the complete phenotypic characterization of this cell line have been described in detail in Sweeney W. E. et al., Am J Physiol C Physiol 2001, 281:C1695-705. All analysis and experiments were performed on REC11 cells grown for a minimum 6 days under non-permissive conditions to eliminate residual Large T.
Proliferation of REC11 cells was stimulated by exposure of the cells for 6 hours with EGF (25 ng/ml). Next, the cells were treated with vehicle, HET0016 (10 μM, a 20-HETE synthesis inhibitor), HET0016 (20 μM), DDMS (10 μM, a 20-HETE synthesis inhibitor), or WIT-002 (10 μM, a 20-HETE antagonist) for 36 hrs, pulsed with BrdU, and then stained for BrdU labeled cells to determine the degree of cell proliferation. […] Cells treated with a higher dose of HET0016 (20 μM) (column C) reduced proliferation by 75% (p<0.020). Cells treated with another chemically dissimilar inhibitor of the synthesis of 20-HETE, DDMS (10 μM) (column D), reduced proliferation by 47% (p<0.05). Cells treated with WIT-002 (10 μM) (column E) reduced proliferation by 25%.

[2] = system: cystic BPK cells; test: BrdU incorporation in cystic BPK cells; format: cell-based, mouse; conditions: 10 μM, 36 hours; vehicle 118
Method: To determine the level of proliferation in the cystic BPK cells, chemically dissimilar inhibitors of cytochrome P450 4A (CYP4A) and 4F (CYP4F) inhibitors, specifically HET-0016 (10 and 20 μM) and DDMS (10 μM), were incubated for 36 hours with the BPK cells. Three hours prior to the harvesting of the cells, 5-bromo-2′-deoxyuridine (BrdU) at a concentration of 30 μM was added to determine the level of cell cycle inhibition. The cells were subsequently methanol fixed and BrdU-positive cells were identified by immunohistology with biotinylated monoclonal anti-BrdU antibody (Zymed, South San Francisco, Calif.). Data were expressed as the percentage of BrdU-labeled cells per 500 counted cells.

[3] = system: 20-HETE; conditions: cited from earlier work

| Structure (SMILES) | reduction of proliferation (BrdU labeled cells) vs vehicle [1] | BrdU-positive cells per 500 total cells counted [2] | 20-HETE levels in vivo [3] |
| --- | --- | --- | --- |
| CS(=O)(=O)NC(=O)CCCCCCCCCC=C(Br)Br [DDMS, dibromododecenyl methylsulfonimide] | 47% | 63 BrdU(+) cells | – |
| C#CCCCCCCCCCCCCCCCC(=O)O [Compound 17-ODYA, 17-Octadecynoic acid] | – | – | reduce 20-HETE levels in vivo |
| Nn1nnc2ccccc21 [Compound 1-ABT, 1-aminobenzotriazole] | – | – | reduce 20-HETE levels in vivo |
| O=C(O)CCCC/C=C\CCCCCCC/C=C\CCCCO [WIT-002, 20-hydroxyeicosa-6(Z),15(Z)-dienoic acid] | 25% | – | – |
